From article PMC3646298 (Pharmaceutical research, 2012)
Like-named read-outs stand apart in the source and are kept apart here.

Tests used:
[1] = target: colchicine-binding site on tubulin (Sus scrofa, UniProt P02550+P02554); assay: Competitive mass spectrometry binding assay; parameters: species or system porcine; conditions: tubulin 1 mg/mL, competitor 0.2–200 μM
[2] = cited from earlier work
in vivo [3] = conditions: female, beagle, dog, plasma, po, 5 mg/kg
in vitro = conditions: human, Caco-2
[4] = Pharmacokinetic study in rats; conditions: female, Sprague-Dawley, rat, plasma, po, 10 mg/kg
PC-3/TxR [5] = assay: Apoptosis; type: cell-based, human; conditions: 0.8–600 nmol/L, 24 h
in vivo [6] = conditions: male (mice), female (rats, dogs), ICR (mouse), Sprague-Dawley (rat), beagle (dog), po
PC-3 = assay: Apoptosis; type: cell-based, human; conditions: PC-3, 0.8–600 nmol/L, 24 h
U87MG = assay: SRB cytotoxicity assay in U87MG glioma; type: cell-based, human; conditions: read-out: Cytotoxicity IC50, 96 h treatment, mean ± SD, N=3
PC-3/TxR tumors = assay: Paclitaxel-resistant PC-3/TxR tumor xenograft study; type: in vivo, nude mice; conditions: for Body weight Start / Body weight End / TGI: PC-3/TxR xenograft
[7] = as above; type: in vivo, nude mice; conditions: male, athymic nude, mouse, tumor, po, 30 mg/kg
LNCaP = conditions: read-out: Cytotoxicity IC50, ref Ahn et al., MCT 9:2959, 2010 ([33]); cited from earlier work
PPC-1 [8] = conditions: read-out: Cytotoxicity IC50, ref Ahn et al., MCT 9:2959, 2010 ([33]); cited from earlier work
Du-145 = conditions: read-out: Cytotoxicity IC50, ref Ahn et al., MCT 9:2959, 2010 ([33]); cited from earlier work
PC-3 tumors = assay: PC-3 tumor xenograft study; type: in vivo, nude mice; conditions: PC-3 xenograft, day 1 and 9, end point day 19
PC-3/TxR [9] = assay: SRB cytotoxicity assay in paclitaxel-resistant PC-3/TxR; type: cell-based, human
PPC-1 [10] = assay: SRB cytotoxicity assay in PPC-1; type: cell-based; conditions: Homo sapiens, PPC-1, 96 h, read-out: Cytotoxicity IC50
[11] = PO 10 mg/kg, b.i.d×5/w, end point day 26
[12] = IV 10 mg/kg, day 1 and 9, end point day 19
[13] = IV 20 mg/kg, day 1 and 9, end point day 19

With CC[C@]1(O)C[C@@H]2CN(CCc3c([nH]c4ccccc34)[C@@](C(=O)OC)(c3cc4c(cc3OC)N(C)[C@H]3[C@@](O)(C(=O)OC)[C@H](OC(C)=O)[C@]5(CC)C=CCN6CC[C@]43[C@@H]65)C2)C1 [Vinblastine] the “competition with colchicine for tubulin binding” value [1] was “did not inhibit colchicine binding to tubulin”.

In the case of COc1cc(C(=O)c2csc(-c3ccccc3)n2)cc(OC)c1OC [SMART-H, 4-(3,4,5-trimethoxybenzoyl)-2-phenyl-thiazole], the neurotoxicity [2] is listed as “did not find any signs of obvious neurotoxicity”.

Compound COc1cc(C(=O)c2csc(Nc3ccc4[nH]ccc4c3)n2)cc(OC)c1OC [IAT, (2-(1H-indol-5-ylamino)-thiazol-4-yl)(3,4,5-trimethoxyphenyl)methanone] has a bioavailability (in vivo [3]) of 36%, a Papp A→B (in vitro) of 99 ×10⁻⁶ cm/s and a bioavailability [4] of 24%. For the same compound, the “induction of cell apoptosis (DNA histone complex formation)” value (“induction of cell apoptosis” below) (PC-3/TxR [5]) was “equally potent in their ability to induce cell apoptosis”, the “competition with colchicine for tubulin binding” value [1] was “competed effectively with colchicine for tubulin binding” and the bioavailability (in vivo [6]) was 24 to 36%. For the same compound, the “induction of cell apoptosis” value (PC-3) was “equally potent in their ability to induce cell apoptosis”, the IC50 (U87MG) was 22 ± 30 nM and the “Body weight Start” value (PC-3/TxR tumors; PO 10 mg/kg, b.i.d×5/w) was 29 ± 2 g. For the same compound, the “Body weight End” value (PC-3/TxR tumors; [11]) was 26 ± 3 g, the TGI (PC-3/TxR tumors; [11]) was 59% and the “Body weight Start” value (PC-3/TxR tumors; PO 30 mg/kg, b.i.d×5/w) was 29 ± 3 g. For the same compound, the “Body weight End” value (PC-3/TxR tumors; PO 30 mg/kg, b.i.d×5/w, end point day 26) was 30 ± 2 g, the Tumor growth inhibition (PC-3/TxR tumors; paclitaxel-resistant prostate cancer xenograft, treated orally at doses of 3–30 mg/kg) was “greater than 100%” and the Kp at 1 h [7] was 0.43 ± 0.33.

For CC(=O)O[C@@]12CO[C@@H]1C[C@H](O)[C@@]1(C)C(=O)[C@H](O)C3=C(C)[C@@H](OC(=O)[C@H](O)[C@@H](NC(=O)OC(C)(C)C)c4ccccc4)C[C@@](O)([C@@H](OC(=O)c4ccccc4)[C@H]21)C3(C)C [Docetaxel], the IC50 (LNCaP) is given as 4.7 ± 1.3 nM, the “induction of cell apoptosis” value (PC-3/TxR [5]) is given as “substantially weaker” and the IC50 (PPC-1 [8]) is given as 2.7 ± 1 nM. For the same compound, the IC50 (Du-145) was 5.2 ± 1 nM, the “induction of cell apoptosis” value (PC-3) was “potently induced cell apoptosis” and the “Body weight End” value (PC-3 tumors; IV 10 mg/kg) was 24 ± 2 g. For the same compound, the “Body weight End” value (PC-3 tumors; IV 20 mg/kg) was 24 ± 3 g, the “Resistance factor (IC50 in PC-3/TxR compared with PC-3)” value (PC-3/TxR [9]) was 15 and the IC50 (PC-3/TxR [9]; Homo sapiens, PC3-TxR, 96 h, read-out: Cytotoxicity IC50) was 18 ± 0.7 nM. For the same compound, the “Body weight End” value (PC-3/TxR tumors; [12]) was 25 ± 2 g, the TGI (PC-3/TxR tumors; [12]) was 14% and the “Body weight End” value (PC-3/TxR tumors; [13]) was 25 ± 4 g. For the same compound, the TGI (PC-3/TxR tumors; [13]) was 56%.

CC(=O)O[C@H]1C(=O)[C@@]2(C)[C@H]([C@H](OC(=O)c3ccccc3)[C@]3(O)C[C@H](OC(=O)[C@H](O)[C@@H](NC(=O)c4ccccc4)c4ccccc4)C(C)=C1C3(C)C)[C@]1(OC(C)=O)CO[C@@H]1C[C@@H]2O [Paclitaxel] gave an IC50 (PPC-1 [10]) of 23 ± 0.8 nM.
